Results on one compound are retold here after BindingDB's records for doi:10.1021/jm00403a001 (Smith Kline & French Laboratories, 1988).

The test addresses Vasopressin V2 receptor (Canis familiaris). Kind of test: In vitro antagonist activity was measured by inhibition of vasopressin-stimulated adenylate cyclase in renal medullary preparation in dog.

The Ki is the dissociation constant of the complex between target and ligand, obtained from inhibition or displacement. A high value points to a looser hold on the target. In turn, `CCOc1ccc(C[C@H]2NC(=O)CC3(CCCCC3)CCC[C@@H](C(=O)N3CCC[C@H]3C(=O)N[C@@H](CCCN=C(N)N)C(N)=O)NC(=O)[C@H](CC(N)=O)NC(=O)[C@H](C(C)C)NC(=O)[C@H](Cc3ccccc3)NC2=O)cc1` [1-[13-Benzyl-19-carbamoylmethyl-10-(4-ethoxy-benzyl)-16-isopropyl-8,11,14,17,20-pentaoxo-9,12,15,18,21-pentaaza-spiro[5.19]pentacosane-22-carbonyl]-pyrrolidine-2-carboxylic acid (1-carbamoyl-4-guanidino-butyl)-amide] gave a Ki of 1000 µM.
